One data set relates to A549. The experiment in a line: Cytotoxicity against human A549 cells assessed as reduction in cell viability measured after 24 hrs. In kind it is functional, cell-based. To be noted: A549, 24 h.
A further data set deals with HepG2. The experiment in a line: Cytotoxicity against human HepG2 cells assessed as reduction in cell viability measured after 24 hrs. In kind it is functional, cell-based. To be noted: HepG2, 24 h.
Another data set concerns J774.A1. The experiment in a line: Cytotoxicity against mouse J774.A1 cells assessed as reduction in cell viability measured after 24 hrs. The following applies: J774.A1, 24 h. In kind it is functional, cell-based.
Data set [1] concerns MCF7. The data set is described as follows: Cytotoxicity against human MCF7 cells assessed as reduction in cell viability measured after 24 hrs. In kind it is functional, cell-based. The following applies: MCF7, 24 h.
The nature of data set [2]: Cytotoxicity against human OVCAR cells assessed as reduction in cell viability measured after 24 hrs. In kind it is functional, cell-based.
A further data set deals with SiHa. The data set is described as follows: Cytotoxicity against human SiHa cells assessed as reduction in cell viability measured after 24 hrs. In kind it is functional, cell-based.
Data set [3] in a line: Cytotoxicity against mouse 3T3 cells assessed as reduction in cell viability measured after 24 hrs. In kind it is toxicity, cell-based. To be noted: NIH3T3 cells.
Data set [4] in a line: Selectivity index, ratio of IC50 for mouse 3T3 cells to IC50 for human A549 cells. To be noted: 3T3 cells and A549 cells, read-out: Ratio IC50. In kind it is toxicity.
Data set [5] is described as follows: Selectivity index, ratio of IC50 for mouse 3T3 cells to IC50 for human HepG2 cells. In kind it is toxicity. The following applies: 3T3 cells and HepG2 cells, read-out: Ratio IC50.
Data set [6] is described as follows: Selectivity index, ratio of IC50 for mouse 3T3 cells to IC50 for human MCF7 cells. In kind it is toxicity. To be noted: 3T3 cells and MCF7 cells, read-out: Ratio IC50.
Data set [7] can be described thus: Selectivity index, ratio of IC50 for mouse 3T3 cells to IC50 for human SiHa cells. The following applies: 3T3 cells and SiHa cells, read-out: Ratio IC50. In kind it is toxicity.
Data set [8] concerns MCF7. The data set is described as follows: Potency index, ratio of hymecromone IC50 to test compound IC50 for cytotoxicity against human MCF7 cells assessed as reduction in cell viability measured after 24 hrs. In kind it is functional.
For data set [9], the system named is NIH3T3. The experiment in a line: Antioxidant activity in mouse 3T3 cells assessed as reduction in ROS level at 0.1 to 5 uM incubated for 24 hrs by DCFH-DA dye based fluorescence microplate reader analysis. In kind it is functional, cell-based. To be noted: dose 0.1-5 µM.
Data set [10] has as its system NIH3T3. The data set is described as follows: Disruption of mitochondrial membrane potential in mouse 3T3 cells at 0.1 to 5 uM incubated for 24 hrs by […] inclusion assay. In kind it is toxicity, cell-based. The following applies: nih3t3, 24 h, dose 0.1-5 µM.
Data set [11] can be described thus: Genotoxicity in mouse 3T3 cells assessed as primary DNA damage at 0.1 to 5 microM incubated for 24 hrs by comet assay. In kind it is toxicity, cell-based. The following applies: nih3t3, 24 h, dose 0.1-5 µM.
A short description of data set [12]: Genotoxicity in mouse 3T3 cells assessed as cell death at 0.1 to 5 microM incubated for 24 hrs by LMW comet assay. In kind it is toxicity, cell-based. To be noted: nih3t3, 24 h, dose 0.1-5 µM.
Data set [13] relates to NIH3T3. The experiment in a line: Induction of apoptosis in mouse 3T3 cells assessed as increase in early apoptotic cells at 0.1 to 1 microM incubated for 24 hrs by Annexin V/PI staining based fluorescence microscopic analysis. The following applies: nih3t3, 24 h, dose 0.1-1 µM. In kind it is toxicity, cell-based.
The test system of data set [14] is NIH3T3. The data set is described as follows: Induction of apoptosis in mouse 3T3 cells assessed as increase in necrotic cells at 0.1 to 1 microM incubated for 24 hrs by Annexin V/PI staining based fluorescence microscopic analysis. In kind it is toxicity, cell-based. To be noted: nih3t3, 24 h, dose 0.1-1 µM.
Data set [15] is described as follows: Selectivity index, ratio of IC50 for mouse 3T3 cells to IC50 for mouse J774.A1 cells.
Data set [16] can be described thus: Selectivity index, ratio of IC50 for mouse 3T3 cells to IC50 for human OVCAR cells.
Data set [17] can be described thus: Antioxidant activity assessed as DPPH radical scavenging activity measured at 50 to 600 sec by spectrophotometric analysis. In kind it is functional. On the technique in general: The DPPH test is a chemical assay of radical scavenging.
The subject of the next data set is RAW264.7. The experiment in a line: Cytotoxicity against mouse RAW264.7 cells assessed as reduction in cell viability measured after 24 hrs. In kind it is functional, cell-based. To be noted: RAW264.7, 24 h.
A short description of data set [18]: Selectivity index, ratio of IC50 for mouse 3T3 cells to IC50 for mouse RAW264.7 cells.
Data set [19] concerns NIH3T3. The experiment in a line: Cytotoxicity against mouse 3T3 cells assessed as reduction in cell viability at 40 uM measured after 24 hrs relative to control. In kind it is toxicity, cell-based. The following applies: nih3t3, 24 h.
Data set [20] deals with NIH3T3. The data set is described as follows: Induction of apoptosis in mouse 3T3 cells assessed as increase in late apoptotic cells at 1 microM incubated for 24 hrs by Annexin V/PI staining based fluorescence microscopic analysis. To be noted: nih3t3, 24 h. In kind it is toxicity, cell-based.

Active and inactive are the calls of the source. The rule behind the calls is not given here. Some results are limits rather than exact numbers.

In general, IC50 refers to the concentration that gives 50% inhibition. For `Cc1cc(=O)oc2cc(OCCn3cc(CCN4C(=O)c5ccccc5C4=O)nn3)ccc12`, the IC50 with A549 is 80.8 µM; in the data set on HepG2, 87.6 µM; with J774.A1, 39.5 µM; with MCF7 [1], 2.66 µM; in data set [2] it was 91.3 µM; in the data set with SiHa, over 100 µM. The half-maximal inhibitory concentration (IC50) at 24 h in data set [3] was 0.62 µM. For the same compound, the selectivity ratio in [4] is 0.007; in [5], 0.007; in [6], 0.233; in [7] it was under 0.001. Moreover, the “Ratio IC50” value in the data set on MCF7 [8] worked out at 5. Besides, the outcome in the data set with NIH3T3 [9] was inactive. Also, the Activity entry was “Toxic” in the data set on NIH3T3 [10]; “Non-Toxic” in data set [11]; “Non-Toxic” in data set [12]; “Toxic” in the data set on NIH3T3 [13]; “Non-Toxic” with NIH3T3 [14].

Regarding `Cc1cc(=O)oc2cc(O)ccc12` [HYMECROMONE], the IC50 in the data set with A549 is over 100 µM; with HepG2, over 100 µM; in the data set on J774.A1, over 100 µM; in the data set on MCF7 [1], 54.8 µM; in data set [2] it was over 100 µM; in the data set with SiHa it was over 100 µM. Further, the half-maximal inhibitory concentration (IC50) at 24 h in [3] was 24 µM. Moreover, the selectivity ratio in data set [4] came to 0.155; in data set [5], 0.161; in data set [6], 0.438; in [7], 0.011. Also, the Ratio IC50 in data set [15] came out at 0.171; in data set [16], 0.021. For the same compound, the outcome with NIH3T3 [9] was Active. Further, the Activity result was “Non-Toxic” in the data set on NIH3T3 [10]; “Non-Toxic” in data set [11]; “Non-Toxic” in data set [12]; “Toxic” in the data set with NIH3T3 [13]; “Non-Toxic” in the data set on NIH3T3 [14].

Take `Cc1cc(=O)oc2c(O)c(O)ccc12` [4-METHYLDAPHNETIN]: the IC50 in [17] came out at 33.5 µM.

In the case of `O=c1ccc2cc(O)c(O)cc2o1` [ESCULETIN], the IC50 in data set [17] came to 25.2 µM.

Take `Cc1cc(=O)oc2cc(OCCn3cc(CO)nn3)ccc12`: the half-inhibitory concentration (IC50) is over 100 µM in the data set on A549; over 100 µM in the data set on HepG2; over 100 µM with J774.A1; 10.1 µM in the data set with MCF7 [1]; over 100 µM in data set [2]; 5.08 µM with RAW264.7. Also, in the data set on SiHa, the IC50 is over 100 µM. Moreover, the IC50 at 24 h in [3] was determined as 5.21 µM. In addition, the selectivity ratio amounted to 0.017 in data set [4], 0.031 in data set [5], 0.516 in [6] and 0.002 in data set [7]. In addition, the Ratio IC50 in [15] is 0.037; in data set [16], under 0.001; in data set [18], 0.025; with MCF7 [8], 5. In addition, the outcome in the data set on NIH3T3 [9] was Active. For the same compound, the Activity result was “Non-Toxic” with NIH3T3 [10]; “Non-Toxic” in [11]; “Non-Toxic” in [12]; “Toxic” with NIH3T3 [13]; “Non-Toxic” with NIH3T3 [14].

As to `Cc1cc(=O)oc2cc(OCCn3cc(COc4cccc5c(C)cc(=O)oc45)nn3)ccc12`, the IC50 in the data set with A549 is over 100 µM; in the data set with HepG2, 88.3 µM; with J774.A1, over 100 µM; in the data set on MCF7 [1], 5.04 µM; in data set [2], over 100 µM; in the data set on RAW264.7 it was 8.37 µM. For the same compound, the half-inhibitory concentration (IC50) in the data set on SiHa was over 100 µM. Also, the IC50 at 24 h in data set [3] is over 40 µM. In addition, the selectivity ratio is 0.175 in data set [4], 0.221 in data set [5], over 7.93 in data set [6] and 0.001 in [7]. The Ratio IC50 in data set [15] was 0.001; in [16], 0.012; in data set [18] it was 2.33; in the data set with MCF7 [8], 5. The Activity result in the data set with NIH3T3 [19] is on record as “Non-Toxic”; in the data set with NIH3T3 [10] it was “Toxic”; in data set [11], “Non-Toxic”; in data set [12], “Non-Toxic”; with NIH3T3 [13], “Toxic”; in the data set with NIH3T3 [14], “Non-Toxic”. Further, in the data set with NIH3T3 [9], the result was Active.

Regarding `Cc1cc(=O)oc2c(O)c(O)cc(C(=O)O)c12`, the concentration for half-maximal inhibition (IC50) in [17] is 17.5 µM.

As to `Cc1cc(=O)oc2cc(OCCn3cc(-c4ccccc4)nn3)ccc12`, the IC50 in the data set on A549 was over 100 µM; in the data set with HepG2 it was over 100 µM; in the data set with J774.A1, 33 µM; with MCF7 [1], 2.85 µM; in [2] it was over 100 µM; in the data set on SiHa, over 100 µM. Moreover, the IC50 at 24 h in data set [3] was determined as 2.41 µM. Also, the selectivity ratio in data set [4] is 0.007; in [5] it was 0.014; in [6], 0.845; in [7], under 0.001. For the same compound, the Ratio IC50 in [15] worked out at 0.072; in data set [16], 0.004; in the data set with MCF7 [8] it was 5. In the data set with NIH3T3 [9], the outcome was inactive. Further, the Activity result in the data set on NIH3T3 [10] is given as “Toxic”; in data set [11], “Non-Toxic”; in [12], “Non-Toxic”; in the data set with NIH3T3 [13], “Toxic”; with NIH3T3 [14] it was “Non-Toxic”; in the data set on NIH3T3 [20], “Toxic”.

The values above are taken from ChEMBL document CHEMBL5257152, “Antiproliferative activity and toxicity evaluation of 1,2,3-triazole and 4-methyl coumarin hybrids in the MCF7 breast cancer cell line” (RSC Med Chem, 2023).
